For one substance, IC50 results are on record in patent publication US11965039B2, “Compstatin analogues and their medical uses” (priority 2018, dated 2024).

A value given as a limit tells only on which side of the number the result lay.

The experiment concerns classical complement pathway. The experiment in a line: In vitro haemolysis assay (inhibition of classical complement pathway). Particulars: human serum, sensitized sheep red blood cells; Table 3, given as upper bounds; read-out: IC50, inhibition of hemolysis. It is filed as cell-based, human. The procedure: The in vitro effect of the compounds of the present invention was assessed by measuring their inhibitory effect of the classical complement pathway in a haemolysis assay. Briefly, compounds of the present invention and reference compounds were dissolved in DMSO and diluted in Tris/Casein Assay Buffer (10 mM Tris, 145 mM NaCl, 0.5 mM MgCl2, 0.15 mM CaCl2), and 0.1% W/V Casein, adjusted to pH 7.4) as 9-point serial dilutions in a 96 well plate. Sensitized sheep red blood cells (RBC) coated with rabbit anti-sheep erythrocyte antiserum (Complement Technology, Inc., TX, USA) were washed in Tris/Casein Assay Buffer. […] from each well of diluted compound was added to a 96-well plate containing 50 μL diluted human serum (Complement Technology, Inc., TX, USA) and incubated for 15 minutes at room temperature. The serum dilution factor was optimized for every serum batch to obtain 70-90% of maximal haemolysis using the protocol. Then 50 μL sensitized sheep red blood cells were added to all wells (10^7 per well). After 30 minutes of incubation at 37 QC with gentle agitation, the reaction was stopped by addition of 50 μL Tris STOP Buffer per well (10 mM EDTA, 10 mM Tris, 145 mM NaCl adjusted to pH 7.4). The RBCs were then removed by centrifugation and the resulting supernatant measured for hemolysis by absorbance at 405 nm. […]

Turning to “Ac-IC(1)IWQDWGEHRC(1)TEG-K((15-carboxy-pentadecanoyl)-[(Piperazine-1-yl)-acetyl][Peg3][Peg3])-NH2 [Compound 95]”, the IC50 (commonly the concentration that gives 50% inhibition) was less than 0.5 µM.
